SMILES strings stand for the structures.

The subject of the test is DIO mice. The test can be described thus: Efficacy in diabetes/obesity-model mice (DIO mice): blood sugar, body weight, fat, triglyceride. Type of test: in vivo, mouse. Conditions: for Weight of the fat around the mouse testicles / Blood sugar / Increase in body weight / Triglyceride: DIO mouse; for Weight of the fat around the mouse testicles: after ITT (day 27); for Blood sugar / Increase in body weight / Triglyceride: day 26; for Triglyceride: plasma. The protocol:
C57BL/6J mice grown on a solid feeding stuff containing 60% fat (D12492, Research Diets) since 4 weeks of age, (male, Charles River Laboratories, Japan, 13 weeks of age) were purchased and mice of 16 weeks of age grown on D12492 since the day of arrival were used. C57BL/6J mice of 16 weeks of age grown on normal food since the day of arrival were used in the normal group. The compound of Example 1 was diluted to 2 mg/mL or 0.6 mg/mL, as it is dissolved in physiological saline, and the solution was administered subcutaneously in an amount of 5 mL/kg, by using a disposable syringe (Terumo) and a 26G injection needle (Terumo). Physiological saline was administered in the vehicle group. The solution was administered once a day from the day of first administration (day 0) to day 26. The body weight was determined on day 26; the tail vein was cut open with a knife (disposable scalpel, FEATHER); and the blood sugar was determined with a simplified blood sugar analyzer (MediSense Precision Xceed, Abotto Japan).
The blood was collected (approximately 70 μL) from the same site by using a heparin-treated capillary (Hematokrit Kapilaren, 75 μL, […] LABORGERATE) and the collected blood was centrifuged (12,000 rpm, 7 min, 4° C.) in a hematocrit centrifuge (KUBOTA3100, Kubota Corp.) and the plasma was stored, as it is frozen in an Eppendorf tube, until it is used for measurement of triglyceride. The triglyceride measurement was carried out by using Triglyceride E-Test Wako (Wako Pure Chemical Industries). Four μL of the sample was added to 250 μL of the coloring liquid, after reaction at 37° C. for 1 hour, and the absorbance (595 nm) of the mixture was determined by using a microplate reader (Bio-Rad, Model 680). Separately, insulin tolerance test (ITT) was performed on day 27.
The insulin level was measured by using an insulin measurement kit (Lebis Insulin Mouse U, Shibayagi). Finally, HOMA-IR was also calculated from the values of fasting blood sugar and fasting insulin. The weight of the fat around the mouse testicles was also determined after measurement of ITT. Statistical treatment of the individual data obtained was carried out by a two-group test (unpaired t-test) or a multiplex comparison test (parametric Williams test).

On to `COc1cc(CN[C@@H](C)[C@H](O)c2ccc(O)c(NS(C)(=O)=O)c2)cc(OC)c1` [Example 1, N-(5-((1R,2S)-2-(3,5-Dimethoxybenzylamino)-1-hydroxypropyl)-2-hydroxyphenyl)methanesulfonamide], for which, for the setting “DIO mice”, the blood sugar-reducing effect entry is “significant blood sugar-reducing effect”, the “increase in body weight versus vehicle group” value is given as “Significant suppression of increase in body weight”, the “plasma triglyceride (TG) versus vehicle group” value was “declined statistically significantly” and the “weight of the fat around the mouse testicles versus vehicle group” value is listed as “declined significantly”. Further, under “3 mg/kg s.c. once a day”, the “Weight of the fat around the mouse testicles” value was 2.6 ± 0.1 g, the Blood sugar was found to be 177 ± 9 mg/dL, the “Increase in body weight” value amounted to 3.5 ± 0.6 g and the Triglyceride was found to be 162 ± 14 mg/dL. Moreover, under “10 mg/kg s.c. once a day”, the “Weight of the fat around the mouse testicles” value is 2.3 ± 0.1 g, the Blood sugar was 168 ± 8 mg/dL, the “Increase in body weight” value is 2.1 ± 0.5 g and the Triglyceride is reported as 129 ± 9 mg/dL.

The record behind these values is patent US8198330B2, “Therapeutic or prophylactic agent for diabetes, obesity, dyslipidemia or metabolic syndrome comprising benzylamine derivative or pharmaceutically acceptable acid addition salt thereof” (Toray Industries, Inc., priority 2008, dated 2012).
